Assay results as given in patent publication US20070191373A1, “Heterocyclic compounds for use in the treatment of viral infections” (priority 2003, published 2007).
Where two headings read alike, the source gives them in different places.

What was measured:
[1] = Toxicity in tissue culture, reduction of cell number; format: cell-based; conditions: human, human embryonic lung fibroblast (HEL) cells, concentration reducing cell number by 50%
Method: (§1) Products where X═Y═N, Z=Q=O, U═V═CH and R^1, R^4 and R^8 are as given in Tables 1 and 2 below embodying the present invention were tested in vitro in tissue cultures for toxicity and for potent antiviral actions with respect to cytomegalovirus (CMV).
CC50/μM is the compound concentration required to reduce the cell number by 50%.
(§2) Further details of the methodology employed can be found in McGuigan et al. J. Med. Chem., 1999, 42, 4479-4484.

[2] = tested on: CMV strain AD169; assay: CMV strain AD169 induced cytopathicity in HEL cells; format: cell-based, cytomegalovirus (CMV); conditions: Human betaherpesvirus 5, AD169, 168 h, vs untreated control
Method: as §1
EC50/μm CMV-AD169 is the drug concentration in μM required to reduce by 50% CMV strain AD169 induced cytopathicity in human embryonic lung fibroblast (HEL) cells measured 7 days post infection compared to untreated control.
as §2

[3] = tested on: CMV strain Davis; assay: CMV strain Davis induced cytopathicity in HEL cells; format: cell-based, cytomegalovirus (CMV); conditions: Human betaherpesvirus 5, 168 h, vs untreated control
Method: as §1
EC50/μM CMV Davis is the drug concentration in μM required to reduce by 50% CMV strain Davis induced cytopathicity in human embryonic lung fibroblast (HEL) cells measured 7 days post infection compared to untreated control.
as §2

[4] = Preliminary rodent trial, bioavailability and half life after i.p. dosing; format: in vivo
[5] = not given; remark: listed apart in the source
[6] = Table 1, 7 days post infection, read-out: EC50/μM 1 CMV Davis
[7] = Table 2, 7 days post infection, read-out: EC50/μM 2 CMV Davis

Row | Structure (SMILES) | CC50 ([1]; Table 1) [µM] | EC50 ([2]; Table 1, 7 days post infection) [µM] | EC50 [3, 6] [µM] | CC50 ([1]; Table 2) [µM] | EC50 ([2]; Table 2, 7 days post infection) [µM] | EC50 [3, 7] [µM] | also measured
1 | CCCCCn1cc2cc(CCCC)oc2nc1=O [Cf2195, 6-Butyl-3-pentyl-3H-furo[2,3-d]pyrimidin-2-one] | > 200 | > 50 | > 50 |  |  |  | 
2 | CCCCCCCCCCc1cc2cnc(OCC3CCCCC3)nc2o1 [Cf2274, 2-Cyclohexylmethoxy-6-decyl-furo[2,3-d]pyrimidine] |  |  |  | > 200 | 4.4 | 2.9 | 
3 | CCCCCCCCCCc1cc2cn(C3CCCO3)c(=O)nc2o1 (centres unmarked) [Cf2249, 6-Decyl-3-(tetrahydro-furan-2′-yl)-2,3-dihydrofuro[2,3-d]pyrimidin-2-one] | > 200 | > 50 | 50 |  |  |  | 
4 | CCCCCCCc1cc2cnc(OCCCCC)nc2o1 [Cf2191, 6-Heptyl-2-pentyloxy-furo[2,3-d]pyrimidine] |  |  |  | 1110 | > 5 | 16 | melting point: 48 to 49 °C
5 | CCCCc1cc2cnc(OC3CCCC3)nc2o1 [Cf2159, 6-Butyl-2-cyclopentyloxy-furo[2,3-d]pyrimidine] |  |  |  | 108 | 8 | 7 | melting point: 69 to 71 °C
6 | CCCCCCCCCCc1cc2cn(Cc3ccccc3)c(=O)nc2o1 [Cf2308, 3-Benzyl-6-decyl-3H-furo[2,3-d]pyrimidin-2-one] | > 200 | > 40 | > 40 |  |  |  | 
7 | CCCCCCCCCCc1cc2cnc(OC3CCCCC3)nc2o1 [Cf2294] |  |  |  | > 200 | 12 | 16 | 
8 | CCCCCCCc1cc2cn(C3CCCO3)c(=O)nc2o1 (centres unmarked) [Cf2196, 6-Heptyl-3-(tetrahydro-furan-2-yl)-3H-furo[2,3-d]pyrimidin-2-one] | 46 | > 20 | > 20 |  |  |  | 
9 | CCCCc1cc2cn(C3CCCC3)c(=O)nc2o1 [Cf2158, 6-Butyl-3-cyclopentyl-3H-furo[2,3-d]pyrimidin-2-one] |  | > 50 | > 50 |  |  |  | 
10 | CCCCCCCCCCc1cc2cn(Cc3ccc(C)cc3)c(=O)nc2o1 [Cf2314, 6-Decyl-3-(4-methylbenzyl)-3H-furo[2,3-d]pyrimidin-2-one] | > 200 | > 40 | > 40 |  |  |  | 
11 | CCCCCCCCCCc1cc2cnc(OCc3ccc(OC)cc3)nc2o1 [Cf2315, 6-Decyl-2-(4-methoxybenzyloxy)-3H-furo[2,3-a]pyrimidine] |  |  |  | > 200 | 3.3 | 2.9 | 
12 | CCCCCCCc1cc2cn(CCCCC)c(=O)nc2o1 [Cf2192, 6-Heptyl-3-pentyl-3H-furo[2,3-d]pyrimidin-2-one] | > 200 | > 200 | > 200 |  |  |  | 
13 | CCCCCCCCCCc1cc2cn(CCCC)c(=O)nc2o1 [Cf2306, 3-Butyl-6-decyl-3H-furo[2,3-d]pyrimidin-2-one] | > 200 | > 200 | > 200 |  |  |  | 
14 | CCCCCCCCCCc1cc2cnc(OC(CC)CC)nc2o1 [Cf2252] |  |  |  | 127 | 16 | 10 | 
15 | CCCCCCCc1cc2cnc(OC(CC)CC)nc2o1 [Cf2189, 6-Heptyl-2-(1-ethyl-propoxy)-furo[2,3-d]pyrimidine] |  |  |  | 98 | > 5 | 12 | melting point: 70 to 71 °C
16 | CCCCCCCCCCc1cc2cnc(OC3CCCC3)nc2o1 [Cf2250, 2-Cyclopentyloxy-6decyl-2,3-dihydrofuro[2,3-d]pyrimidine] |  |  |  | > 200 | > 50 | > 50 | 
17 | CCCCc1cc2cnc(OC(CC)CC)nc2o1 [Cf2193, 6-Butyl-2-(1-ethyl-propoxy)-furo[2,3-d]pyrimidine] |  |  |  | 98 | > 20 | > 20 | 
18 | CCCCCCCc1cc2cn(C(CC)CC)c(=O)nc2o1 [Cf2190, 6-Heptyl-3-(1-ethyl-propyl)-3H-furo[2,3-d]pyrimidin-2-one] | > 200 | 20 | 50 |  |  |  | 
19 | CCCCCCCCCCc1cc2cnc(OCCCCC)nc2o1 [Cf2247] |  |  |  | > 200 | > 200 | > 200 | 

Row | Structure (SMILES) | CC50 ([1]; Table 1) [µM] | EC50 ([2]; Table 1, 7 days post infection) [µM] | EC50 [3, 6] [µM] | CC50 ([1]; Table 2) [µM] | EC50 ([2]; Table 2, 7 days post infection) [µM] | EC50 [3, 7] [µM] | also measured
20 | CCCCCOc1ncc2cc(CCCC)oc2n1 [Cf 2327] |  |  |  |  |  |  | melting point: 51 to 52 °C
21 | CCCCCCCCCCc1cc2cn(CC3CCCCC3)c(=O)nc2o1 [Cf2275, 3-Cyclohexylmethyl-6-decyl-3H-furo[2,3-d]pyrimidin-2-one] | > 200 | > 200 | > 200 |  |  |  | 
22 | CCCCCCCCCCc1cc2cnc(OCc3ccccc3)nc2o1 [Cf2307, 2-Benzyloxy-6-decyl-furo[2,3-d]pyrimidine] |  |  |  | > 200 | 3.3 | 1.1 | 
23 | CCCCCCCCCCc1cc2cn(CC3CCCO3)c(=O)nc2o1 (centres unmarked) [Cf2309, 6-Decyl-3-(tetrahydro-furan-2-ylmethyl)-3H-furo[2,3-d]pyrimidin-2-one] | 49 | 0.78 | 0.84 |  |  |  | 
24 | CCCCCCCCCCc1cc2cnc(OCc3ccc(C)cc3)nc2o1 [Cf2313, 6-Decyl-2-(4-methylbenzyloxy)-3H-furo[2,3-d]pyrimidine] |  |  |  | > 200 | 10.5 | 3.9 | 
25 | CCCCCCCCCCc1cc2cn(Cc3ccc(OC)cc3)c(=O)nc2o1 [Cf2316, 6-Decyl-3-(4-methoxybenzyl)-3H-furo[2,3-d]pyrimidin-2-one] | > 200 | > 200 | > 200 |  |  |  | 
26 | CCCCc1cc2cn(C(CC)CC)c(=O)nc2o1 [Cf2194, 6-Butyl-3-(1-ethyl-propyl)-3H-furo[2,3-d]pyrimidin-2-one] | > 200 | > 50 | > 200 |  |  |  | 
27 | CCCCCCCCCCc1cc2cn(C3CCOC3)c(=O)nc2o1 (centres unmarked) [Cf2276, 6-Decyl-3-(tetrahydro-furan-3-yl)-3H-furo[2,3-d]pyrimidin-None] | 148 | 20 | 10 |  |  |  | 
28 | CCCCCCc1cc2cnc(OCCCC)nc2o1 [Cf2346, 2-Butyloxy-6-hexyl-furo[2,3-d]pyrimidine] |  |  |  |  | 8 | 3 | 
29 | CCCCCCCc1cc2cn(C3CCCC3)c(=O)nc2o1 [Cf2160] | 194 | 5 | 4 |  |  |  | 
30 | CCCCCCCCCCc1cc2cn(CCC)c(=O)nc2o1 [Cf2304, 6-Decyl-3-propyl-3H-furo[2,3-d]pyrimidin-2-one] | > 200 | 40 | 8 |  |  |  | 
31 | CCCCCCc1cc2cnc(OCc3ccccc3)nc2o1 [Cf2348, 2-Benzyloxy-6-hexyl-furo[2,3-d]pyrimidine] |  |  |  |  | > 200 | > 3.6 | 
32 | CCCCCCCCCCc1cc2cn(C3CCCCC3)c(=O)nc2o1 [Cf2295, 3-Cyclohexyl-6-decyl-2,3-dihydrofuro[2,3-d]pyrimidin-2-one] | > 200 | 38 | 50 |  |  |  | 
33 | CCCCCCc1cc2cn(C)c(=O)nc2o1 [Cf2344, 6-Hexyl-3-methyl-3H-furo[2,3-d]pyrimidin-2-one] |  | 18 | 20 |  |  |  | 
34 | CCCCCCCc1cc2cnc(OC3CCCC3)nc2o1 [Cf2161, 6-Heptyl-2-cyclopentyloxy-furo[2,3-d]pyrimidine] |  |  |  | 132 | 3 | 5 | bioavailability [4]: significant; visible in vivo toxicity ([5]; 50 mg/kg/day): no visible in vivo toxicity; histology: toxicity against brain, thymus, liver, lungs, kidney, breast, testi, ovum and spleen tissue ([5]; in vivo): no detectable toxicity
35 | CCCCCCCCCCc1cc2cnc(OCCCC)nc2o1 [Cf2305, 2-Butoxy-6decyl-furo[2,3-a]pyrimidine] |  |  |  | > 200 | 3.9 | 2.7 | 
36 | CCCCCCCCCCc1cc2cnc(OCCC)nc2o1 [Cf2303, 6-Decyl-2-propoxy-furo[2,3-d]pyrimidine] |  |  |  | 126 | 2.5 | 2.1 | 
37 | CCCCCCc1cc2cn(Cc3ccccc3)c(=O)nc2o1 [Cf2349, 3-Benzyl-6-hexyl-3H-furo[2,3-d]pyrimidin-2-one] |  | > 200 | > 200 |  |  |  | 
